Data published in patent US11590142B2, “Oxazolidinone antibiotic compounds and process of preparation” (Bugworks Research, Inc., priority 2018, dated 2023).
pIC50: −log10 of the molar value. Converted amounts (≈) assume the structure as drawn. One block for each compound: values may come before it.

Columns and labels:
Type in all cases: cell-based
[1] = test system: Pseudomonas aeruginosa ATCC 27853; test: Minimum Inhibitory Concentration (MIC) in LB media; details: ATCC27853, read-out: Minimum Inhibitory Concentration P. aurigenosa ATCC 27853
Experimental: (§1) Biological Activity (Antibacterial activity): The compounds of Formula (I) are of interest due to their potent antibacterial effects. […] The medium sterility is checked by incubating at 37° C. for a period of 48 h. Bacterial cultures that are stored as glycerol stocks at -80° C. are sub cultured on LB agar plates to obtain isolated colonies. A single colony of each strain is cultured in LB broth. The cultures are incubated at 37° C., 200 rpm till they reach an optical density (OD at 600 nm) of 0.8 to 1. […] Test compounds are dissolved in dimethyl sulfoxide (DMSO) to a stock concentration of 4 mg/mi. A twofold dilution series of this DMSO stock is prepared in a 96 well V bottom microtitre plate from rows A to H. A 3 μL volume of these dilutions are transferred to a 96-well flat bottom microtitre assay plate. Controls to monitor the effects of DMSO and media sterility are included. Each well is inoculated with 150 μL of the above diluted culture. The plates are incubated at 37° C. overnight in a humidified incubator. The following morning, the plates are read using a Spectrophotometer at 600 nm wavelength.

[2] = test system: Escherichia coli ATCC 25922; test: Minimum Inhibitory Concentration (MIC) in LB media; details: ATCC25922, read-out: Minimum Inhibitory Concentration E. coli ATCC 25922
Experimental: as §1

[3] = test system: Klebsiella pneumoniae ATCC 13883; test: Minimum Inhibitory Concentration (MIC) in LB media; details: ATCC13883, read-out: Minimum Inhibitory Concentration K. pneumoniae ATCC 13883
Experimental: as §1

[4] = test system: Staphylococcus aureus ATCC 29213; test: Minimum Inhibitory Concentration (MIC) in LB media; details: ATCC29213, read-out: Minimum Inhibitory Concentration S. aureus ATCC 29213
Experimental: as §1

[5] = test system: Enterococcus faecalis ATCC 29212; test: Minimum Inhibitory Concentration (MIC) in LB media; details: ATCC29212, read-out: Minimum Inhibitory Concentration E. faecalis ATCC 29212
Experimental: as §1

[6] = test system: Acinetobacter baumannii ATCC 19606; test: Minimum Inhibitory Concentration (MIC) in LB media; details: ATCC19606
Experimental: as §1

[7] = target: human ether a go-go related gene (hERG) K+ channel (Homo sapiens (Human), UniProt Q12809); test: hERG inhibition assay, QPatch HTX automated electrophysiology; details: CHO cell line stably expressing hERG, whole-cell patch clamp, maximum test concentration 300 μM
human ether a go-go related gene (hERG) K+ channel, sequence (Q12809 whole entry): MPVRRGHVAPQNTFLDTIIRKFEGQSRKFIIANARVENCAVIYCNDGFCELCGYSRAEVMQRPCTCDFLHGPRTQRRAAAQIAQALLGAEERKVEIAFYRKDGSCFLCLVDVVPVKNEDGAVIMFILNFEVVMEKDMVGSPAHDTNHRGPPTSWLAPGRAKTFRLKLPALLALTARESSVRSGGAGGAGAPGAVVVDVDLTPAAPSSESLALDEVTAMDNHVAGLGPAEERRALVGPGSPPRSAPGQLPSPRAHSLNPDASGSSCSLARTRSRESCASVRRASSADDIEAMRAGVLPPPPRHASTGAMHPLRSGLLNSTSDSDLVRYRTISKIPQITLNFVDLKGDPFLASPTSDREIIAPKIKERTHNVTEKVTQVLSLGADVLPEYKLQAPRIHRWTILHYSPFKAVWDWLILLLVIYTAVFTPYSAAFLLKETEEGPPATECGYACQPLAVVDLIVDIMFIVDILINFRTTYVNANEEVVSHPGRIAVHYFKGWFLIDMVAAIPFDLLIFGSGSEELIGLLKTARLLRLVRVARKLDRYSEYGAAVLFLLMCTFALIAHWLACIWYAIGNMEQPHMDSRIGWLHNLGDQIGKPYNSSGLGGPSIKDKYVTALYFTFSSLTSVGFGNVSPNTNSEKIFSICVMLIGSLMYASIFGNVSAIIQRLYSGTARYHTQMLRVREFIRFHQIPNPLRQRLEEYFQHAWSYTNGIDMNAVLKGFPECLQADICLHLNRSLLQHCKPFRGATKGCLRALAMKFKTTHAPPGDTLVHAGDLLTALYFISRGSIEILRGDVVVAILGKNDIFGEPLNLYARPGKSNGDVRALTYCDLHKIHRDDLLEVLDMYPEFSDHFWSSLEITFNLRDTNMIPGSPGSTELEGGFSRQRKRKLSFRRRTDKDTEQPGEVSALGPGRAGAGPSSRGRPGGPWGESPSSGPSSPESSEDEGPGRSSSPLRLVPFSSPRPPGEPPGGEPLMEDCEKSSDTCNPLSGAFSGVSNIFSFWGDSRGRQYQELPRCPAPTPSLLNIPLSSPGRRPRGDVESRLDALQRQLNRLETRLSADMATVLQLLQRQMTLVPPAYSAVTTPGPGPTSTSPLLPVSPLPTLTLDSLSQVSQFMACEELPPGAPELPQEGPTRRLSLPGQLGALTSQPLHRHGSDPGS
Experimental: The compounds were tested for inhibition of the human ether a go-go related gene (hERG) K+ channel using QPatch HTX automated electrophysiology. […] Compounds were solubilised to 100 mM in DMSO before dilution in HBPS to 300 μM. […] Electrophysiological recordings were made from a Chinese Hamster Ovary cell line stably expressing the full-length hERG potassium channel. Single cell ionic currents were measured in whole-cell patch clamp configuration at room temperature (21-23° C.) using the QPatch HTX platform (Sophion). Intracellular solution contained (mM): 120 KF, 20 KCl, 10 EGTA, 10 HEPES and was buffered to pH 7.3. […] Cells were clamped at a holding potential of −80 mV. Cells were stepped to +20 mV for 2 s then −40 mV for 3s before returning to the holding potential. This sweep was repeated 10 times at 10 s intervals. hERG currents were measured from the tail step and referenced to the holding current. Compounds were then incubated for 2 minutes prior to a second measurement of ion channel current using an identical pulse train.

[8] = test system: K. pneumoniae clinical strains; test: Antibacterial susceptibility studies (MIC50 and MIC90), clinical strains, CLSI guidelines
[9] = test system: A. baumannii clinical strains; test: as above
[10] = test system: E. cloacae clinical strains; test: as above
[11] = test system: P. aurigenosa clinical strains; test: as above
P. aurigenosa ATCC27853 = test: Antibacterial susceptibility study, reference strain, CLSI guidelines
E. coli clinical strains = test: Antibacterial susceptibility studies (MIC50 and MIC90), clinical strains, CLSI guidelines
A. baumannii ATCC19606 = test: Antibacterial susceptibility study, reference strain, CLSI guidelines
K. pneumoniae ATCC13883 = test: as above
E. coli ATCC25922 = test: as above

SMILES: O=C(O)c1cn(C2CC2)c2cc(N3CCNCC3)c(F)cc2c1=O [Ciprofloxacin, reference compound]
MIC [1]: 0.1 µg/mL (≈ 0.302 µM)
MIC [2]: 0.012 µg/mL (≈ 0.0362 µM)
MIC [3]: 0.05 µg/mL (≈ 0.151 µM)
MIC [4]: 0.4 µg/mL (≈ 1.21 µM)
MIC [5]: 0.4 µg/mL (≈ 1.21 µM)
MIC [6]: 0.4 µg/mL (≈ 1.21 µM)

SMILES: Cn1c(=O)cnc2ccc(OCCNCCC3CN(c4ccc5c(n4)NC(=O)CO5)C(=O)O3)nc21 (centres unmarked) [Compound 1, 6-(5-(2-((2-((4-methyl-3-oxo-3,4-dihydropyrido[2,3-b]pyrazin-6-yl)oxy)ethyl)amino)ethyl)-2-oxooxazolidin-3-yl)-2H-pyrido[3,2-b][1,4]oxazin-3(4H)-one]
MIC [1]: 1 µg/mL (≈ 2.08 µM)
MIC [2]: 0.06 µg/mL (≈ 0.125 µM)
MIC [3]: 0.25 µg/mL (≈ 0.519 µM)
MIC [4]: 0.13 µg/mL (≈ 0.27 µM)
MIC [5]: 0.5 µg/mL (≈ 1.04 µM)
MIC [6]: 0.06 µg/mL (≈ 0.125 µM)

SMILES: Cn1c(=O)ccc2ncc(OCCNCCC3CN(c4ccc5c(n4)NC(=O)CO5)C(=O)O3)nc21 (centres unmarked) [Compound 2, 6-(5-(2-((2-((5-methyl-6-oxo-5,6-dihydropyrido[2,3-b]pyrazin-3-yl)oxy)ethyl)amino)ethyl)-2-oxooxazolidin-3-yl)-2H-pyrido[3,2-b][1,4]oxazin-3(4H)-one]
MIC [1]: 0.5 µg/mL (≈ 1.04 µM)
MIC [2]: 0.13 µg/mL (≈ 0.27 µM)
MIC [3]: 0.25 µg/mL (≈ 0.519 µM)
MIC [4]: 0.06 µg/mL (≈ 0.125 µM)
MIC [5]: 1 µg/mL (≈ 2.08 µM)
MIC [6]: 0.06 µg/mL (≈ 0.125 µM)

SMILES: Cn1c(=O)cnc2ccc(OCCNC[C@H]3CN(c4ccc5c(n4)NC(=O)CO5)C(=O)O3)nc21 [Compound 3, (S)-6-(5-(((2-((4-methyl-3-oxo-3,4-dihydropyrido[2,3-b]pyrazin-6-yl)oxy)ethyl)amino)methyl)-2-oxooxazolidin-3-yl)-2H1-pyrido[3,2-b][1,4]oxazin-3(4H)-one]
pIC50 [7]: 4.40
MIC [1]: 2 µg/mL (≈ 4.28 µM)
MIC [2]: 0.06 µg/mL (≈ 0.128 µM)
MIC [3]: 0.25 µg/mL (≈ 0.535 µM)
MIC [4]: 0.06 µg/mL (≈ 0.128 µM)
MIC [5]: 0.25 µg/mL (≈ 0.535 µM)
MIC [6]: 0.06 µg/mL (≈ 0.128 µM)

SMILES: Cn1c(=O)cnc2ccc(OCCNC[C@@H]3CN(c4ccc5c(n4)NC(=O)CO5)C(=O)O3)nc21 [Compound 4, (R)-6-(5-(((2-((4-methyl-3-oxo-3,4-dihydropyrido[2,3-b]pyrazin-6-yl)oxy)ethyl)amino)methyl)-2-oxooxazolidin-3-yl)-2H-pyrido[3,2-b][1,4]oxazin-3(4H)-one]
pIC50 [7]: 4.42
MIC [1]: 2 µg/mL (≈ 4.28 µM)
MIC [2]: 0.06 µg/mL (≈ 0.128 µM)
MIC [3]: 0.25 µg/mL (≈ 0.535 µM)
MIC [4]: 0.06 µg/mL (≈ 0.128 µM)
MIC [5]: 0.25 µg/mL (≈ 0.535 µM)
MIC [6]: 0.06 µg/mL (≈ 0.128 µM)

SMILES: Cn1c(=O)ccc2ncc(OCCNC[C@H]3CN(c4ccc5c(n4)NC(=O)CO5)C(=O)O3)nc21 [Compound 5, (S)-6-(5-(((2-((5-methyl-6-oxo-5,6-dihydropyrido[2,3-b]pyrazin-3-yl)oxy)ethyl)amino)methyl)-2-oxooxazolidin-3-yl)-2H1-pyrido[3,2-b][1,4]oxazin-3(4H)-one]
pIC50 [7]: 4.09
MIC [1]: 4 µg/mL (≈ 8.56 µM)
MIC [2]: 0.25 µg/mL (≈ 0.535 µM)
MIC [3]: 0.25 µg/mL (≈ 0.535 µM)
MIC [4]: 0.25 µg/mL (≈ 0.535 µM)
MIC [5]: 0.5 µg/mL (≈ 1.07 µM)
MIC [6]: 0.25 µg/mL (≈ 0.535 µM)

More lines, main results first:

MIC [1]: 2 µg/mL (≈ 4.28 µM)
MIC [2]: 0.13 µg/mL (≈ 0.278 µM)
MIC [3]: 0.25 µg/mL (≈ 0.535 µM)
MIC [4]: 0.13 µg/mL (≈ 0.278 µM)
MIC [5]: 0.25 µg/mL (≈ 0.535 µM)
MIC [6]: 0.13 µg/mL (≈ 0.278 µM)
SMILES: Cn1c(=O)ccc2ncc(OCCNC[C@@H]3CN(c4ccc5c(n4)NC(=O)CO5)C(=O)O3)nc21 [Compound 6, (R)-6-(5-(((2-((5-methyl-6-oxo-5,6-dihydropyrido[2,3-b]pyrazin-3-yl)oxy)ethyl)amino)methyl)-2-oxooxazolidin-3-yl)-2H-pyrido[3,2-b][1,4]oxazin-3(4H)-one]
pIC50 [7]: 4.22

MIC [1]: 1 µg/mL (≈ 2.13 µM)
MIC [2]: 0.06 µg/mL (≈ 0.128 µM)
MIC [3]: 0.25 µg/mL (≈ 0.534 µM)
MIC [4]: 0.125 µg/mL (≈ 0.267 µM)
MIC [5]: 0.5 µg/mL (≈ 1.07 µM)
MIC [6]: 0.5 µg/mL (≈ 1.07 µM)
SMILES: Cn1c(=O)cnc2ccc(OCCNC[C@@H]3CN(c4cnc5c(n4)NC(=O)CO5)C(=O)O3)nc21 [Compound 8, (R)-6-(5-(((2-((4-methyl-3-oxo-3,4-dihydropyrido[2,3-b]pyrazin-6-yl)oxy)ethyl)amino)methyl)-2-oxooxazolidin-3-yl)-2H1-pyrazino[2,3-b][1,4]oxazin-3(4H)-one]
pIC50 [7]: < 3.52

MIC [1]: 1 µg/mL (≈ 2.06 µM)
MIC [2]: 0.06 µg/mL (≈ 0.123 µM)
MIC [3]: 0.25 µg/mL (≈ 0.514 µM)
MIC [4]: 0.06 µg/mL (≈ 0.123 µM)
MIC [5]: 0.25 µg/mL (≈ 0.514 µM)
MIC [6]: 0.5 µg/mL (≈ 1.03 µM)
SMILES: Cn1c(=O)cnc2cc(F)c(OCCNC[C@H]3CN(c4cnc5c(n4)NC(=O)CO5)C(=O)O3)nc21 [Compound 10, (S)-6-(5-(((2-((7-fluoro-4-methyl-3-oxo-3,4-dihydropyrido[2,3-b]pyrazin-6-yl)oxy)ethyl)amino)methyl)-2-oxooxazolidin-3-yl)-2H-pyrazino[2,3-b][1,4]oxazin-3(4H)-one]
pIC50 [7]: < 3.52

MIC [1]: 2 µg/mL (≈ 4.15 µM)
MIC [2]: 0.125 µg/mL (≈ 0.259 µM)
MIC [3]: 0.5 µg/mL (≈ 1.04 µM)
MIC [4]: 0.03 µg/mL (≈ 0.0622 µM)
MIC [5]: 1 µg/mL (≈ 2.07 µM)
MIC [6]: 0.5 µg/mL (≈ 1.04 µM)
SMILES: CCn1c(=O)cnc2ccc(OCCNC[C@H]3CN(c4cnc5c(n4)NC(=O)CO5)C(=O)O3)nc21 [Compound 11, (S)-6-(5-(((2-((4-ethyl-3-oxo-3,4-dihydropyrido[2,3-b]pyrazin-6-yl)oxy)ethyl)amino)methyl)-2-oxooxazolidin-3-yl)-2H-pyrazino[2,3-b][1,4]oxazin-3(4H)-one]

MIC [1]: 4 µg/mL (≈ 7.95 µM)
MIC [2]: 0.125 µg/mL (≈ 0.249 µM)
MIC [3]: 0.25 µg/mL (≈ 0.497 µM)
MIC [4]: 0.125 µg/mL (≈ 0.249 µM)
MIC [5]: 0.25 µg/mL (≈ 0.497 µM)
MIC [6]: 0.5 µg/mL (≈ 0.994 µM)
SMILES: Cn1c(=O)cnc2cc(Cl)c(OCCNC[C@H]3CN(c4cnc5c(n4)NC(=O)CO5)C(=O)O3)nc21 [Compound 12, (S)-6-(5-(((2-((7-Chloro-4-methyl-3-oxo-3,4-dihydropyrido[2,3-b]pyrazin-6-yl)oxy)ethyl)amino)methyl)-2-oxooxazolidin-3-yl)-2H-pyrazino[2,3-b][1,4]oxazin-3(4H)-one]
pIC50 [7]: 4.01

MIC [1]: 0.5 µg/mL (≈ 1.03 µM)
MIC [2]: 0.03 µg/mL (≈ 0.0619 µM)
MIC [3]: 0.03 µg/mL (≈ 0.0619 µM)
MIC [4]: ≤ 0.03 µg/mL
MIC [5]: 0.1 µg/mL (≈ 0.206 µM)
MIC [6]: 0.03 µg/mL (≈ 0.0619 µM)
SMILES: Cn1c(=O)cnc2ccc(OCCNC[C@H]3CN(c4cnc5c(n4)NC(=O)CS5)C(=O)O3)nc21 [Compound 13, (S)-5-(((2-((4-Methyl-3-oxo-3,4-dihydropyrido[2,3-b]pyrazin-6-yl)oxy)ethyl)amino)methyl)-3-(3-oxo-3,4-dihydro-2H-pyrazino[2,3-b][1,4]thiazin-6-yl)oxazolidin-2-one]

MIC50 [8]: 1 µg/mL (≈ 2.61 µM)
MIC90 [8]: 16 µg/mL (≈ 41.7 µM)
Minimum (MIC) [8]: 0.03 µg/mL
MIC50 [9]: 8 µg/mL (≈ 20.9 µM)
MIC90 [9]: 32 µg/mL (≈ 83.4 µM)
Minimum (MIC) ([9]; in µg/mL): 0.03125
MIC50 [10]: 0.25 µg/mL (≈ 0.652 µM)
MIC90 [10]: 16 µg/mL (≈ 41.7 µM)
Minimum (MIC) [10]: 0.06 µg/mL
MIC50 [11]: 2 µg/mL (≈ 5.22 µM)
MIC90 [11]: 8 µg/mL (≈ 20.9 µM)
Minimum (MIC) [11]: 0.03 µg/mL
ATCC27853 (MIC) (P. aurigenosa ATCC27853): 0.5 µg/mL
MIC50 (E. coli clinical strains): 0.06 µg/mL (≈ 0.156 µM)
MIC90 (E. coli clinical strains): 4 µg/mL (≈ 10.4 µM)
Minimum (MIC) (E. coli clinical strains): 0.03 µg/mL
ATCC19606 (MIC) (A. baumannii ATCC19606): 0.5 µg/mL
ATCC13883 (MIC) (K. pneumoniae ATCC13883): 0.06 µg/mL
ATCC25922 (MIC) (E. coli ATCC25922): 0.06 µg/mL
SMILES: C[C@@H](O)[C@H]1C(=O)N2C(C(=O)O)=C(S[C@@H]3CN[C@H](C(=O)N(C)C)C3)[C@H](C)[C@H]12 [Meropenem, reference compound]
